Test system: cabbage root fly
Test: Swede field trials in Norway, cabbage root fly damage (four sites)
Format: in vivo
Description: An extensive program of non-public field trials, which included five crops of swede were carried out. The field trials design was based around multiple applications of either ECOguard® liquid (garlic juice concentrate) or granules (wood flour granules impregnated with the garlic juice concentrate) and in four out of the five swede trials was referenced against Dimethoate as a standard.

CNC(=O)CSP(=S)(OC)OC [Dimethoate]
Combined root damage index (RDI), % Change (in vivo): −5.8%
Combined root damage index (RDI), Ga-Fa (in vivo): 65.78
Combined root damage index (RDI), Mid-Troms (in vivo): 40.60
Combined root damage index (RDI), Sor Ost (in vivo): 24.92
Combined root damage index (RDI), Toten (in vivo): 44.33
Difference of Means (trt 1 control subtracted from trt), cabbage root fly damage (in vivo): −0.3100
cabbage root fly damage, statistical analysis (in vivo): significantly reduced damage
mean saleable yield (cat 1 + 2), % Change (mean of four sites versus control): +8%
